Reference: ChEMBL document CHEMBL1201862, “PubChem BioAssay data set” (2004)
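Assay format: 96-well plates, 48-hour exposure. The concentration for 50% growth inhibition is given as GI50.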 Active and inactive are the calls of the source. No stated cut-off is given here; in the data, active = GI50 up to about 1.1 µM and inactive = higher.

Columns and labels:
Assay in all cases: NCI anticancer screen, dose series, 48 h
M14 = test system: M14
EKVX = test system: EKVX
SF-295 = test system: SF-295
HCC 2998 = test system: HCC 2998
HT-29 = test system: HT-29
KM12 = test system: KM12
PC-3 = test system: PC-3
SK-MEL-2 = test system: SK-MEL-2
SN12C = test system: SN12C
OVCAR-8 = test system: OVCAR-8
HCT-116 = test system: HCT-116
SK-OV-3 = test system: SK-OV-3
SK-MEL-28 = test system: SK-MEL-28
MCF7 = test system: MCF7
SW-620 = test system: SW-620
786-0 = test system: 786-0
NCI-H522 = test system: NCI-H522
K562 = test system: K562
A498 = test system: A498

Measured: GI50

O=C1NC(=O)/C(=C\c2ccncc2)N1
inactive: M14 > 100 µM | EKVX > 100 µM | SF-295 > 100 µM | HCC 2998 > 100 µM | HT-29 > 100 µM | KM12 > 100 µM | PC-3 > 100 µM | SK-MEL-2 > 100 µM | SN12C > 100 µM | OVCAR-8 > 100 µM | HCT-116 > 100 µM | SK-OV-3 > 100 µM | SK-MEL-28 > 100 µM | MCF7 > 100 µM | SW-620 > 100 µM | 786-0 > 100 µM

OCCCCCCCCCCCOc1ccc(C2OCC3(CC=CCC3)CO2)cc1 (configuration not stated)
inactive: M14 11.1 µM | EKVX 10.6 µM | SF-295 17.6 µM | HCC 2998 17.9 µM | HT-29 3.85 µM | KM12 13 µM | PC-3 4.07 µM | SK-MEL-2 38.1 µM | SN12C 15 µM | OVCAR-8 17.2 µM | HCT-116 15.8 µM | SK-OV-3 19.3 µM | SK-MEL-28 16.9 µM | NCI-H522 5.08 µM | MCF7 4.88 µM | SW-620 16 µM | 786-0 13.8 µM

O=C(CC(=O)N1N=C(N(c2ccccc2)c2ccccc2)CC1c1ccccc1)Nc1ccccc1 (configuration not stated)
inactive: M14 > 100 µM | EKVX > 100 µM | SF-295 66.7 µM | HCC 2998 > 100 µM | HT-29 > 100 µM | KM12 > 100 µM | PC-3 > 100 µM | SK-MEL-2 > 100 µM | OVCAR-8 > 100 µM | HCT-116 > 100 µM | SK-OV-3 80.9 µM | SK-MEL-28 > 100 µM | NCI-H522 64.1 µM | MCF7 > 100 µM | SW-620 > 100 µM | 786-0 81.7 µM | K562 > 100 µM

Nc1cnc2c(c1)c(=O)nc1n2CCS1
inactive: EKVX 39.3 µM | SF-295 > 100 µM | HCC 2998 > 100 µM | HT-29 > 100 µM | KM12 55.1 µM | PC-3 > 100 µM | A498 > 100 µM | SK-MEL-2 > 100 µM | SN12C > 100 µM | OVCAR-8 > 100 µM | HCT-116 > 100 µM | SK-OV-3 > 100 µM | SK-MEL-28 > 100 µM | MCF7 > 100 µM | SW-620 > 100 µM | 786-0 > 100 µM | K562 > 100 µM

C=C(C)C(CC=C(C)C)CC12CC(CC=C(C)C)C(C)(C)C(CC=C(C)C)(C(=O)C(Cc3ccc(O)c(O)c3)=C1O)C2=O (configuration not stated)
inactive: M14 > 100 µM | EKVX > 100 µM | SF-295 > 100 µM | HCC 2998 > 100 µM | HT-29 > 100 µM | KM12 > 100 µM | PC-3 > 100 µM | A498 74 µM | OVCAR-8 > 100 µM | HCT-116 > 100 µM | SK-OV-3 > 100 µM | SK-MEL-28 > 100 µM | NCI-H522 > 100 µM | MCF7 > 100 µM | SW-620 > 100 µM | 786-0 > 100 µM | K562 99.3 µM

CSc1s[s+]c(SC)c1-c1ccccc1
inactive: M14 16.5 µM | EKVX 14.8 µM | SF-295 17.6 µM | HCC 2998 5.62 µM | HT-29 17.5 µM | KM12 16 µM | PC-3 21.7 µM | A498 19.8 µM | SN12C 16.3 µM | OVCAR-8 15.7 µM | HCT-116 15.4 µM | SK-OV-3 15.9 µM | NCI-H522 11.7 µM | MCF7 17 µM | SW-620 16.4 µM | 786-0 14.1 µM | K562 20.2 µM

CNc1ccc([S+]([O-])Nc2ccc(OC)cc2)cc1 (configuration not stated)
inactive: M14 > 100 µM | EKVX 70.1 µM | SF-295 > 100 µM | HCC 2998 50.2 µM | HT-29 33.7 µM | KM12 3.86 µM | PC-3 > 100 µM | A498 > 100 µM | SN12C > 100 µM | OVCAR-8 86.3 µM | HCT-116 66.8 µM | SK-OV-3 49.2 µM | SK-MEL-28 93.3 µM | NCI-H522 > 100 µM | MCF7 79.6 µM | SW-620 31.6 µM | 786-0 74.8 µM | K562 21.3 µM

Cc1ccc(-c2nc(N/N=C/C=C/c3ccccc3)c3ccccc3n2)cc1
inactive: M14 29.4 µM | EKVX 15 µM | SF-295 23.2 µM | HCC 2998 28.4 µM | HT-29 32.8 µM | KM12 54 µM | PC-3 28.6 µM | SK-MEL-2 24.9 µM | SN12C 24.8 µM | OVCAR-8 44.2 µM | HCT-116 26.6 µM | SK-OV-3 23.8 µM | SK-MEL-28 34.2 µM | NCI-H522 21.3 µM | MCF7 14 µM | SW-620 29.1 µM | 786-0 30 µM | K562 > 100 µM

Cc1ccc(C(=O)/C=C(\O)C(=O)NC23CC4CC(CC(C4)C2)C3)cc1
inactive: M14 > 10 µM | EKVX > 10 µM | SF-295 5.86 µM | HCC 2998 > 10 µM | HT-29 > 10 µM | KM12 > 10 µM | PC-3 9.79 µM | SN12C 7.59 µM | OVCAR-8 > 10 µM | SK-OV-3 > 10 µM | SK-MEL-28 > 10 µM | MCF7 7.41 µM | SW-620 > 10 µM | 786-0 > 10 µM | K562 5.64 µM

CO/N=C(\C(=O)Nc1cncs1)c1csc(N)n1
inactive: M14 > 10 µM | EKVX > 10 µM | SF-295 > 10 µM | HCC 2998 > 10 µM | HT-29 > 10 µM | KM12 > 10 µM | PC-3 > 10 µM | A498 > 10 µM | SN12C > 10 µM | OVCAR-8 > 10 µM | HCT-116 > 10 µM | SK-OV-3 > 10 µM | SK-MEL-28 > 10 µM | NCI-H522 > 10 µM | MCF7 > 10 µM | SW-620 > 10 µM | 786-0 > 10 µM | K562 > 10 µM

CC1(C)C2CCC(CN)(C2)C1N (configuration not stated)
inactive: M14 > 100 µM | EKVX > 100 µM | SF-295 > 100 µM | HCC 2998 9.42 µM | HT-29 > 100 µM | KM12 > 100 µM | PC-3 > 100 µM | A498 > 100 µM | SK-MEL-2 > 100 µM | SN12C > 100 µM | OVCAR-8 > 100 µM | HCT-116 > 100 µM | SK-OV-3 > 100 µM | SK-MEL-28 > 100 µM | MCF7 > 100 µM | SW-620 > 100 µM | 786-0 > 100 µM | K562 > 100 µM

CCCCCc1cc2cc3c(c(O)c2c(=O)[nH]1)C1(CCC3)C(=O)c2c(O)ccc(O)c2C1=O
inactive: M14 > 100 µM | EKVX > 100 µM | SF-295 > 100 µM | HCC 2998 > 100 µM | HT-29 > 100 µM | KM12 > 100 µM | PC-3 > 100 µM | A498 > 100 µM | SK-MEL-2 66.7 µM | SN12C > 100 µM | OVCAR-8 59.3 µM | HCT-116 > 100 µM | SK-MEL-28 > 100 µM | NCI-H522 > 100 µM | MCF7 > 100 µM | SW-620 56 µM | 786-0 > 100 µM | K562 > 100 µM

CC(C)(C)OC(=O)N/C(C=O)=C\C1CCCCC1
inactive: M14 16.2 µM | EKVX 17.2 µM | SF-295 29.8 µM | HCC 2998 19.8 µM | HT-29 27.2 µM | KM12 24.4 µM | PC-3 17.3 µM | SK-MEL-2 24.8 µM | SN12C 19.3 µM | OVCAR-8 16.3 µM | HCT-116 16.3 µM | SK-OV-3 30 µM | SK-MEL-28 46.6 µM | NCI-H522 45.7 µM | MCF7 25.6 µM | SW-620 27.3 µM | 786-0 19.9 µM | K562 22.6 µM

COC(=O)[C@H](Cc1ccccc1)NC(=O)N(CCN(CCC#N)C(=O)N[C@H](C(=O)OC)C(C)C)c1ccccc1
inactive: M14 > 100 µM | EKVX > 100 µM | SF-295 > 100 µM | HCC 2998 > 100 µM | KM12 > 100 µM | PC-3 > 100 µM | A498 > 100 µM | SK-MEL-2 41.8 µM | SN12C > 100 µM | OVCAR-8 > 100 µM | HCT-116 > 100 µM | SK-OV-3 > 100 µM | SK-MEL-28 > 100 µM | NCI-H522 30.3 µM | MCF7 > 100 µM | SW-620 > 100 µM | 786-0 > 100 µM

CCOC(=O)c1nc2c3c(ncn2n1)Oc1c(c(-c2ccccc2)nn1-c1ccccc1)C3c1ccc(Cl)cc1 (configuration not stated)
inactive: M14 > 100 µM | SF-295 > 100 µM | HCC 2998 > 100 µM | HT-29 > 100 µM | KM12 15.1 µM | PC-3 > 100 µM | A498 > 100 µM | SK-MEL-2 > 100 µM | SN12C > 100 µM | OVCAR-8 > 100 µM | HCT-116 > 100 µM | SK-OV-3 > 100 µM | SK-MEL-28 > 100 µM | NCI-H522 > 100 µM | MCF7 > 100 µM | SW-620 > 100 µM | 786-0 > 100 µM | K562 > 100 µM

C=C1C(O)C[C@H](OC(C)=O)[C@]2(C)C1C(OC(C)=O)[C@]1(C(C)(C)O)CC(O)C(C)=C1[C@@H](OC(=O)c1ccccc1)C2OC(C)=O (some centres not stated)
inactive: M14 > 10 µM | EKVX > 10 µM | SF-295 > 10 µM | HT-29 > 10 µM | KM12 > 10 µM | PC-3 > 10 µM | A498 > 10 µM | SK-MEL-2 > 10 µM | SN12C > 10 µM | OVCAR-8 > 10 µM | HCT-116 > 10 µM | SK-OV-3 > 10 µM | SK-MEL-28 > 10 µM | NCI-H522 > 10 µM | MCF7 > 10 µM | SW-620 > 10 µM | 786-0 > 10 µM | K562 > 10 µM
